Biological target: T1, Alpha 2C adrenergic receptor (Homo sapiens, UniProt P18825)
T1 construct: expressed in transfected cells
T1 sequence (P18825 1-462): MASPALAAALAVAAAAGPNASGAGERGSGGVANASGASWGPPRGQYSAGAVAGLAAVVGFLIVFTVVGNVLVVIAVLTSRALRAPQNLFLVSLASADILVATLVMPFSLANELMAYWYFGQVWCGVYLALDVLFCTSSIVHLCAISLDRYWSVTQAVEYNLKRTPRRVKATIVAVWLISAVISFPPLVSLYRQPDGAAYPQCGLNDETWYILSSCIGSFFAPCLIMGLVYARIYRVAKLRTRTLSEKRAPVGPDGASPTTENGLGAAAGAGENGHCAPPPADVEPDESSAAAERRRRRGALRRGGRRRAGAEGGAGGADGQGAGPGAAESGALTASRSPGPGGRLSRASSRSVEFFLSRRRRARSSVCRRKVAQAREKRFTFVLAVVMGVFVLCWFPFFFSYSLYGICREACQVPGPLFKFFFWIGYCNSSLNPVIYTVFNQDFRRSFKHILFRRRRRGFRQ
Experiment: RSAT (Receptor Selection and Amplification Technology) compound screening
Type: cell-based
Details: for EC50: cells expressing the alpha 2C adrenergic receptor, receptor-mediated growth response, read-out: Intrinsic Activity EC50, Alpha 2C; for Intrinsic Activity (efficacy), Alpha 2C: relative efficacy compared to a standard full agonist
Experimental: Cells expressing each of the alpha 2 adrenergic receptors alone were incubated with the various compounds and a receptor-mediated growth response was measured. The compound's activity was expressed as its relative efficacy compared to a standard full agonist (see Table 2).

SMILES | EC50 [µM] | Intrinsic Activity (efficacy), Alpha 2C
Clc1c(N=C2NCCN2)cnc2cccnc12 [Compound 2, 4-Chloro-N-(imidazolidin-2-ylidene)-1,5-naphthyridin-3-amine] | 0.021 | (0.95)
Cc1c(N=C2NCCN2)cnc2ccccc12 [Compound 3, N-(imidazolidin-2-ylidene)-4-methylquinolin-3-amine] | 1.65 | (0.21)
c1cnc2ncc(N=C3NCCN3)cc2n1 [Compound 6, N-(imidazolidin-2-ylidene)pyrido[2,3-b]pyrazin-7-amine] | 4.58 | (0.44)
Brc1c(N=C2NCCN2)cnc2ccccc12 [Compound 5, 4-Bromo-N-(imidazolidin-2-ylidene)quinolin-3-amine] | 1.53 | (0.17)
c1ccc2c(N=C3NCCN3)ccnc2c1 [Compound 1, N-(imidazolidin-2-ylidene)quinolin-4-amine] | 0.0174 | (0.95)
Cc1c(N=C2NCCN2)cnc2nccnc12 [Compound 7, N-(imidazolidin-2-ylidene)-8-methylpyrido[2,3-b]pyrazin-7-amine] | 0.311 | (0.93)
Clc1c(N=C2NCCN2)cnc2ccccc12 [Compound 4, 4-Chloro-N-(imidazolidin-2-ylidene)quinolin-3-amine] | 0.368 | (0.66)
